# Assay results published in ChEMBL document CHEMBL1201862, “PubChem BioAssay data set” (2004).
#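 Step 1: Grow cells in 96-well plates. Step 2: Expose to compound for 48 hours at 5 concentrations. Step 3: Interpolate endpoints linearly; if unreached, use highest concentration. The concentration for 50% growth inhibition is given as GI50.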 Active and inactive are the calls of the source. Rule as the data show it: active = GI50 up to about 1.1 µM and inactive = higher.
# Key:
# Assay in all cases: DTP human tumour cell line panel, 48 h
# Malme-3M = test system: Malme-3M
# HCT-116 = test system: HCT-116
# RXF 393 = test system: RXF 393
# M19-MEL = test system: M19-MEL
# HL-60 = test system: HL-60
# HCC 2998 = test system: HCC 2998
# OVCAR-3 = test system: OVCAR-3
# UACC-257 = test system: UACC-257
# UACC-62 = test system: UACC-62
# LOX IMVI = test system: LOX IMVI
# OVCAR-4 = test system: OVCAR-4
# K562 = test system: K562
# 786-0 = test system: 786-0
# SF-295 = test system: SF-295
# SNB-78 = test system: SNB-78
# A549 = test system: A549
# OVCAR-8 = test system: OVCAR-8
# SN12C = test system: SN12C
# U-251 = test system: U-251
# HCT-15 = test system: HCT-15
# UO-31 = test system: UO-31
# SK-MEL-2 = test system: SK-MEL-2
# SF-539 = test system: SF-539
# CAKI-1 = test system: CAKI-1
# SK-MEL-5 = test system: SK-MEL-5
# DMS-273 = test system: DMS-273
# TK-10 = test system: TK-10
# RPMI-8226 = test system: RPMI-8226
# NCI-H226 = test system: NCI-H226
# NCI-H23 = test system: NCI-H23
# KM12 = test system: KM12
# NCI-H460 = test system: NCI-H460
# ACHN = test system: ACHN
# SW-620 = test system: SW-620
# LXFL 529 = test system: LXFL 529
# HOP-18 = test system: HOP-18
# SNB-75 = test system: SNB-75
# DMS-114 = test system: DMS-114
# SK-MEL-28 = test system: SK-MEL-28
# SR = test system: SR
# SF-268 = test system: SF-268
# HOP-92 = test system: HOP-92
# HT-29 = test system: HT-29
# SNB-19 = test system: SNB-19
# A498 = test system: A498
# M14 = test system: M14
# MOLT-4 = test system: MOLT-4
# OVCAR-5 = test system: OVCAR-5
# KM-20L2 = test system: KM-20L2
# DLD-1 = test system: DLD-1
# CCRF-CEM = test system: CCRF-CEM
# EKVX = test system: EKVX
# COLO 205 = test system: COLO 205
# IGROV-1 = test system: IGROV-1
# NCI-H522 = test system: NCI-H522
# XF498 = test system: XF498
# SK-OV-3 = test system: SK-OV-3
# HOP-62 = test system: HOP-62
smiles,measurement,setting,value
CSCSCC(CO)NC(=O)/C=C/c1c(C)nc(O)nc1O (stereo not drawn),GI50,Malme-3M,> 100 µM (inactive)
same,GI50,HCT-116,> 100 µM (inactive)
same,GI50,RXF 393,> 100 µM (inactive)
same,GI50,M19-MEL,84.3 µM (inactive)
same,GI50,HL-60,> 100 µM (inactive)
same,GI50,HCC 2998,> 100 µM (inactive)
same,GI50,OVCAR-3,26.4 µM (inactive)
same,GI50,UACC-257,> 100 µM (inactive)
same,GI50,UACC-62,> 100 µM (inactive)
same,GI50,LOX IMVI,> 100 µM (inactive)
same,GI50,OVCAR-4,37 µM (inactive)
same,GI50,K562,39.7 µM (inactive)
same,GI50,786-0,> 100 µM (inactive)
same,GI50,SF-295,> 100 µM (inactive)
same,GI50,SNB-78,> 100 µM (inactive)
same,GI50,A549,> 100 µM (inactive)
same,GI50,OVCAR-8,> 100 µM (inactive)
same,GI50,SN12C,> 100 µM (inactive)
same,GI50,U-251,64.3 µM (inactive)
same,GI50,HCT-15,> 100 µM
same,GI50,UO-31,> 100 µM (inactive)
same,GI50,SK-MEL-2,89.9 µM (inactive)
same,GI50,SF-539,> 100 µM (inactive)
same,GI50,CAKI-1,56.6 µM (inactive)
same,GI50,SK-MEL-5,> 100 µM (inactive)
same,GI50,DMS-273,> 100 µM (inactive)
same,GI50,TK-10,> 100 µM (inactive)
same,GI50,RPMI-8226,> 100 µM (inactive)
same,GI50,NCI-H226,> 100 µM (inactive)
same,GI50,NCI-H23,> 100 µM (inactive)
same,GI50,KM12,> 100 µM (inactive)
same,GI50,NCI-H460,> 100 µM (inactive)
same,GI50,ACHN,> 100 µM (inactive)
same,GI50,SW-620,> 100 µM (inactive)
same,GI50,LXFL 529,> 100 µM (inactive)
same,GI50,HOP-18,> 100 µM (inactive)
same,GI50,SNB-75,> 100 µM (inactive)
same,GI50,DMS-114,64.9 µM (inactive)
same,GI50,SK-MEL-28,> 100 µM (inactive)
same,GI50,SR,56.4 µM (inactive)
same,GI50,SF-268,30.8 µM (inactive)
same,GI50,HOP-92,> 100 µM (inactive)
same,GI50,HT-29,> 100 µM (inactive)
same,GI50,SNB-19,28.8 µM (inactive)
same,GI50,A498,> 100 µM (inactive)
same,GI50,M14,> 100 µM (inactive)
same,GI50,MOLT-4,96.6 µM (inactive)
same,GI50,OVCAR-5,> 100 µM (inactive)
same,GI50,KM-20L2,46.8 µM (inactive)
same,GI50,DLD-1,> 100 µM (inactive)
same,GI50,CCRF-CEM,44.4 µM (inactive)
same,GI50,EKVX,57.1 µM (inactive)
C=CCNC(=O)N(CCC)CCCCC(NC(C)=O)C(=O)NCc1ccccc1 (stereo not drawn),GI50,Malme-3M,> 100 µM (inactive)
same,GI50,COLO 205,> 100 µM (inactive)
same,GI50,RXF 393,> 100 µM (inactive)
same,GI50,M19-MEL,> 100 µM (inactive)
same,GI50,HL-60,> 100 µM (inactive)
same,GI50,HCC 2998,> 100 µM (inactive)
same,GI50,OVCAR-3,> 100 µM (inactive)
same,GI50,UACC-257,> 100 µM (inactive)
same,GI50,UACC-62,> 100 µM (inactive)
same,GI50,LOX IMVI,> 100 µM (inactive)
same,GI50,OVCAR-4,> 100 µM (inactive)
same,GI50,K562,> 100 µM (inactive)
same,GI50,786-0,> 100 µM (inactive)
same,GI50,SF-295,> 100 µM (inactive)
same,GI50,A549,> 100 µM (inactive)
same,GI50,OVCAR-8,> 100 µM (inactive)
same,GI50,SN12C,> 100 µM (inactive)
same,GI50,U-251,> 100 µM (inactive)
same,GI50,HCT-15,> 100 µM
same,GI50,UO-31,> 100 µM (inactive)
same,GI50,SK-MEL-2,> 100 µM (inactive)
same,GI50,SF-539,> 100 µM (inactive)
same,GI50,CAKI-1,> 100 µM (inactive)
same,GI50,SK-MEL-5,> 100 µM (inactive)
same,GI50,DMS-273,> 100 µM (inactive)
same,GI50,TK-10,> 100 µM (inactive)
same,GI50,RPMI-8226,> 100 µM (inactive)
same,GI50,NCI-H226,> 100 µM (inactive)
same,GI50,NCI-H23,> 100 µM (inactive)
same,GI50,IGROV-1,> 100 µM (inactive)
same,GI50,NCI-H522,> 100 µM (inactive)
same,GI50,KM12,> 100 µM (inactive)
same,GI50,NCI-H460,> 100 µM (inactive)
same,GI50,ACHN,> 100 µM (inactive)
same,GI50,SW-620,> 100 µM (inactive)
same,GI50,LXFL 529,> 100 µM (inactive)
same,GI50,HOP-18,72.1 µM (inactive)
same,GI50,SNB-75,> 100 µM (inactive)
same,GI50,DMS-114,> 100 µM (inactive)
same,GI50,SK-MEL-28,> 100 µM (inactive)
same,GI50,XF498,> 100 µM (inactive)
same,GI50,SK-OV-3,> 100 µM (inactive)
same,GI50,SF-268,> 100 µM (inactive)
same,GI50,HOP-92,> 100 µM (inactive)
same,GI50,HT-29,> 100 µM (inactive)
same,GI50,SNB-19,> 100 µM (inactive)
same,GI50,A498,> 100 µM (inactive)
same,GI50,M14,> 100 µM (inactive)
same,GI50,MOLT-4,> 100 µM (inactive)
same,GI50,OVCAR-5,> 100 µM (inactive)
same,GI50,HOP-62,> 100 µM (inactive)
same,GI50,KM-20L2,> 100 µM (inactive)
same,GI50,CCRF-CEM,> 100 µM (inactive)
same,GI50,EKVX,> 100 µM (inactive)
COc1ccc2c(c[n+](C)c3c4cc5c(cc4ccc23)OCO5)c1OC [CHELERYTHRINE CHLORIDE],GI50,M19-MEL,1.6 µM (inactive)
same,GI50,SNB-78,2 µM (inactive)
same,GI50,SK-MEL-2,2.04 µM (inactive)
same,GI50,CAKI-1,1.91 µM (inactive)
same,GI50,DMS-273,2.04 µM (inactive)
same,GI50,NCI-H522,2.14 µM (inactive)
same,GI50,LXFL 529,1.73 µM (inactive)
same,GI50,HOP-18,1.8 µM (inactive)
same,GI50,DMS-114,2.18 µM (inactive)
same,GI50,SR,1.28 µM (inactive)
same,GI50,KM-20L2,1.74 µM (inactive)
same,GI50,DLD-1,1.7 µM (inactive)
O=c1[nH]c2cccccc-2c1-c1nc2ccccc2[nH]1,GI50,Malme-3M,21.3 µM (inactive)
same,GI50,COLO 205,> 100 µM (inactive)
same,GI50,HCT-116,19.8 µM (inactive)
same,GI50,RXF 393,20.9 µM (inactive)
same,GI50,M19-MEL,34.2 µM (inactive)
same,GI50,HL-60,36.6 µM (inactive)
same,GI50,HCC 2998,38.7 µM (inactive)
same,GI50,OVCAR-3,> 10 µM (inactive)
same,GI50,UACC-257,> 100 µM (inactive)
same,GI50,UACC-62,17.9 µM (inactive)
same,GI50,LOX IMVI,14.9 µM (inactive)
same,GI50,OVCAR-4,20.6 µM (inactive)
same,GI50,K562,34.5 µM (inactive)
same,GI50,786-0,18.2 µM (inactive)
same,GI50,SF-295,30.5 µM (inactive)
same,GI50,SNB-78,25.7 µM (inactive)
same,GI50,A549,25 µM (inactive)
same,GI50,OVCAR-8,26.5 µM (inactive)
same,GI50,SN12C,31.6 µM (inactive)
same,GI50,U-251,21.8 µM (inactive)
same,GI50,HCT-15,21.9 µM
same,GI50,UO-31,31.1 µM (inactive)
same,GI50,SK-MEL-2,24.3 µM (inactive)
same,GI50,SF-539,22.4 µM (inactive)
same,GI50,CAKI-1,20.4 µM (inactive)
same,GI50,SK-MEL-5,18.7 µM (inactive)
same,GI50,DMS-273,15.5 µM (inactive)
same,GI50,TK-10,92.7 µM (inactive)
same,GI50,RPMI-8226,28.5 µM (inactive)
same,GI50,NCI-H226,11.1 µM (inactive)
same,GI50,NCI-H23,31.3 µM (inactive)
same,GI50,IGROV-1,32.7 µM (inactive)
same,GI50,NCI-H522,19.3 µM (inactive)
same,GI50,KM12,4.82 µM (inactive)
same,GI50,NCI-H460,7.01 µM (inactive)
same,GI50,ACHN,14.1 µM (inactive)
same,GI50,SW-620,69.5 µM (inactive)
same,GI50,LXFL 529,22.2 µM (inactive)
same,GI50,SNB-75,12.2 µM (inactive)
same,GI50,DMS-114,10.3 µM (inactive)
same,GI50,SK-MEL-28,20.3 µM (inactive)
same,GI50,SR,34.2 µM (inactive)
same,GI50,XF498,18.5 µM (inactive)
same,GI50,SK-OV-3,20.1 µM (inactive)
same,GI50,SF-268,14.9 µM (inactive)
same,GI50,HOP-92,25.8 µM (inactive)
same,GI50,HT-29,52.2 µM (inactive)
same,GI50,SNB-19,21.2 µM (inactive)
same,GI50,M14,44.3 µM (inactive)
same,GI50,OVCAR-5,> 100 µM (inactive)
same,GI50,HOP-62,39.8 µM (inactive)
same,GI50,KM-20L2,46.5 µM (inactive)
same,GI50,DLD-1,32.4 µM (inactive)
same,GI50,CCRF-CEM,25.5 µM (inactive)
same,GI50,EKVX,40.8 µM (inactive)
